In patent publication US20140051679A1, “KINASE INHIBITORS AND METHOD OF TREATING CANCER WITH SAME” (UNIVERISTY HEALTH NETWORKS, priority 2011, published 2014):
pIC50: −log10 of the molar value.

Key:
human TTK = molecular target: T1, human TTK (Homo sapiens, UniProt P33981); assay: TTK inhibition assay (indirect ELISA); format: biochemical; details: GST-TTK 0.68 nM, 16 μM ATP; read-out: IC50 Ranges TTK
T1 construct: amino terminal GST fusion of full length human TTK; purchased Invitrogen
T1 sequence (P33981 1-857): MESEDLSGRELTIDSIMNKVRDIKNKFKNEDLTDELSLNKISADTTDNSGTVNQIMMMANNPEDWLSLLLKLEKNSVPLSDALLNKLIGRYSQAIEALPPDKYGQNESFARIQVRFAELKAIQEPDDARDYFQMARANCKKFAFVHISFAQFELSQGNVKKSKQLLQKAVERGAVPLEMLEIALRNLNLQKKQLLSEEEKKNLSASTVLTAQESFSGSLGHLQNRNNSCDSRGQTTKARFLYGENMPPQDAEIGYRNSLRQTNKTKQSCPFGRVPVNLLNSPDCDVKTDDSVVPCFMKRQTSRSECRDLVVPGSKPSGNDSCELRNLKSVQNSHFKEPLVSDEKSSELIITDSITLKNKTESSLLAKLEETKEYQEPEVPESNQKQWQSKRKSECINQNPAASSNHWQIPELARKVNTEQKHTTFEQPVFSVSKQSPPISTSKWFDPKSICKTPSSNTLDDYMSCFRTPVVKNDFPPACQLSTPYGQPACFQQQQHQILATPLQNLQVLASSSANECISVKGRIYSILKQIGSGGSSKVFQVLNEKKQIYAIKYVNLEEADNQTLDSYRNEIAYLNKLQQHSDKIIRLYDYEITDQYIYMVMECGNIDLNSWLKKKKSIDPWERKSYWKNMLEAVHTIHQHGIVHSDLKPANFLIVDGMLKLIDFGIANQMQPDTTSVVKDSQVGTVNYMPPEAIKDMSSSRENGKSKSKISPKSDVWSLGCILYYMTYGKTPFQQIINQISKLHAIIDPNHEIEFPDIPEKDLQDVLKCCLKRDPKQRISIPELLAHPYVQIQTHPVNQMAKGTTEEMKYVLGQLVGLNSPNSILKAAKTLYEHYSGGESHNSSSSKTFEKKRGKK

[1] = system: MDA-MB-468 breast cancer cells; assay: Cell growth inhibition, Sulforhodamine B assay, MDA-MB-468; format: cell-based; details: Homo sapiens, 120 h, 5 days culture, SRB assay, read-out: Cell Line GI50 Range MDA-MB-468
HT29 colon cancer cells = assay: Cell growth inhibition, Sulforhodamine B assay, HT29; format: cell-based; details: Homo sapiens, HT-29, 120 h, 5 days culture, SRB assay, read-out: Cell Line GI50 Range HT29
[2] = system: OVCAR-3 ovarian cancer cells; assay: Cell growth inhibition, Sulforhodamine B assay, OVCAR-3; format: cell-based; details: Homo sapiens, 120 h, 5 days culture, SRB assay, read-out: Cell Line GI50 Range OVCAR-3
[3] = system: HCT116 colon cancer cells; assay: Cell growth inhibition, Sulforhodamine B assay, HCT116; format: cell-based; details: Homo sapiens, HCT-116, 120 h, 5 days culture, SRB assay, read-out: Cell Line GI50 Range HCT116
human PLK4 = molecular target: T2, human PLK4 (Homo sapiens, UniProt O00444); assay: PLK4 inhibition assay (indirect ELISA); format: biochemical; details: GST-PLK4 4 nM, 15 μM ATP; read-out: IC50 Ranges PLK4
T2 construct: amino terminal GST fusion of residues 1-391 of human PLK4; made in house; host or cells: E. coli
T2 sequence (O00444 1-391): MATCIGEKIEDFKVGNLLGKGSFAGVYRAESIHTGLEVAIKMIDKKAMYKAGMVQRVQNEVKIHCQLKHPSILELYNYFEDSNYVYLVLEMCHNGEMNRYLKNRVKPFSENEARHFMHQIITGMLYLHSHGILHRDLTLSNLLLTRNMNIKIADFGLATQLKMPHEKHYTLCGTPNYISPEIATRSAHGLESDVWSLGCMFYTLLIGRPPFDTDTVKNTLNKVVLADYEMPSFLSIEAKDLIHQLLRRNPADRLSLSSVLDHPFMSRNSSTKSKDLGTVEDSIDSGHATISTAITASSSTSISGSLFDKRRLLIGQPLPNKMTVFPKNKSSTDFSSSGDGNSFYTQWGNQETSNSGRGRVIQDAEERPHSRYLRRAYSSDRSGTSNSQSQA
Outline: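 Dephosphorylated GST-tagged human PLK4 (residues 1-391, E. coli), 4 nM, preincubated 15 min with compound, then reacted 30 min with 15 μM ATP on MBP-coated plates (50 mM HEPES pH 7.5, 10 mM MgCl2, 0.01% Brij 35). Phospho-MBP detected by antibody ELISA at 450 nm. Tested at 10 μM or 10-point titrations; IC50 from 4-parameter logistic fit.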

[4] = system: MDA-MB-231 breast cancer cells; assay: Cell growth inhibition, Sulforhodamine B assay, MDA-MB-231; format: cell-based; details: Homo sapiens, 120 h, 5 days culture, SRB assay, read-out: Cell Line GI50 Range MDA-MB-231
[5] = system: PA-1 ovarian cancer cells; assay: Cell growth inhibition, Sulforhodamine B assay, PA-1; format: cell-based; details: 120 h, 5 days culture, SRB assay, read-out: Cell Line GI50 Range PA-1
Aurora B = molecular target: T3, Aurora B (Homo sapiens, UniProt Q96GD4); assay: Aurora B inhibition assay (Z-Lyte); format: biochemical; details: 28 nM Aurora B, 128 μM ATP; read-out: IC50 Ranges Aurora B
T3 construct: purchased Invitrogen PV3970
T3 sequence (Q96GD4 whole entry): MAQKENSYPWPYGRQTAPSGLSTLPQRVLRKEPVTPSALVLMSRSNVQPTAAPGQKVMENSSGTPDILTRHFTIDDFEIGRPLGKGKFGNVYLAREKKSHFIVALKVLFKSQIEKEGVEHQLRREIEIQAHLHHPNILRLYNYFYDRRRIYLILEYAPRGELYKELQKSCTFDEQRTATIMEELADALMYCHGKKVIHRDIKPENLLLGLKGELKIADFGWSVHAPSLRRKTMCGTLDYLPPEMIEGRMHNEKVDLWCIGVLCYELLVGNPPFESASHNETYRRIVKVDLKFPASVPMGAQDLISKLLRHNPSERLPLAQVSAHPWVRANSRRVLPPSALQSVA
Method: Aurora B inhibition was determined using the Z-Lyte assay kit from Invitrogen. The assay was performed using the recommended manufacturer's instructions with 128 μM ATP and 28 nM Aurora B (Invitrogen cat #PV3970). The % inhibition values were determined according to the manufacturer's directions and IC50 values were obtained using a non-linear 4 point logistic curve fit (XLfit4, IDBS)

| SMILES | pIC50 (human TTK) | GI50 [1] [µM] | GI50 (HT29 colon cancer cells) [µM] | GI50 [2] [µM] | GI50 [3] [µM] | pIC50 (human PLK4) | GI50 [4] [µM] | GI50 [5] [µM] | pIC50 (Aurora B) |
| --- | --- | --- | --- | --- | --- | --- | --- | --- | --- |
| CN1CCC(Oc2ccc(-c3n[nH]c4ccc(C(=O)NCc5ccccc5CN5CCOCC5)cc34)cc2)CC1 [Example A109, 3-(4-(1-Methylpiperidin-4-yloxy)phenyl)-N-(2-(morpholinomethyl)benzyl)-1H-indazole-5-carboxamide] | ≥ 5.30 | ≤ 5 | ≤ 5 | ≤ 5 | ≤ 5 | ≥ 5.30 | ≤ 5 | ≤ 5 | ≥ 5.30 |
| CN1CCC(Oc2ccc(-c3n[nH]c4ccc(NC(=O)C(c5ccsc5)N5CCCC5)cc34)cc2N(C)C)CC1 (stereo not drawn) [Example A113, N-(3-(3-(dimethylamino)-4-((1-methylpiperidin-4-yl)oxy)phenyl)-1H-indazol-5-yl)-2-(pyrrolidin-1-yl)-2-(thiophen-3-yl)acetamide] | ≥ 5.30 | ≤ 5 | ≤ 5 | ≤ 5 | ≤ 5 | ≥ 5.30 | ≤ 5 | ≤ 5 | ≥ 5.30 |
| CCc1cccc(CC)c1NC(=O)Nc1ccc2[nH]nc(-c3ccc(C4CN(C)CCO4)cc3)c2c1 (stereo not drawn) [Example A124, 1-(2,6-diethylphenyl)-3-(3-(4-(4-methylmorpholin-2-yl)phenyl)-1H-indazol-5-yl)urea] | ≥ 5.30 | ≤ 5 | ≤ 5 | 20 to 50 | ≤ 5 | ≥ 5.30 | ≤ 5 | ≤ 5 | ≥ 5.30 |
| CN1CCC(Oc2ccc(-c3n[nH]c4ccc(C(=O)N[C@@H](CCO)c5ccccc5)cc34)cc2)CC1 [Example A125, (S)—N-(3-hydroxy-1-phenylpropyl)-3-(4-((1-methylpiperidin-4-yl)oxy)phenyl)-1H-indazole-5-carboxamide] | ≥ 5.30 | ≤ 5 | ≤ 5 | ≤ 5 | ≤ 5 | ≥ 5.30 | ≤ 5 | ≤ 5 | ≥ 5.30 |
| Cc1ccccc1C(NC(=O)c1ccc2[nH]nc(-c3ccc(OC4CCN(C)CC4)cc3)c2c1)C(C)C (stereo not drawn) [Example A143, N-(2-methyl-1-(o-tolyl)propyl)-3-(4-((1-methylpiperidin-4-yl)oxy)phenyl)-1H-indazole-5-carboxamide] | ≥ 5.30 | ≤ 5 | ≤ 5 | ≤ 5 | ≤ 5 | ≥ 5.30 | ≤ 5 | ≤ 5 | ≥ 5.30 |
| CN1CCC(Oc2ccc(-c3n[nH]c4ccc(NC(=O)C(c5ccccc5)C5CCCC5)cc34)cc2)CC1 (stereo not drawn) [Example A148, 2-cyclopentyl-N-(3-(4-((1-methylpiperidin-4-yl)oxy)phenyl)-1H-indazol-5-yl)-2-phenylacetamide] | ≥ 5.30 | ≤ 5 | ≤ 5 | ≤ 5 | ≤ 5 | ≥ 5.30 | ≤ 5 | ≤ 5 | ≥ 5.30 |
| CCC(NC(=O)c1ccc2[nH]nc(-c3ccc(OC4CCN(CCOC)CC4)cc3)c2c1)c1ccccc1 (stereo not drawn) [Example A153, 3-(4-((1-(2-methoxyethyl)piperidin-4-yl)oxy)phenyl)-N-(1-phenylpropyl)-1H-indazole-5-carboxamide] | ≥ 5.30 | ≤ 5 | ≤ 5 | ≤ 5 | ≤ 5 | ≥ 5.30 | ≤ 5 | ≤ 5 | ≥ 5.30 |
| COCCN1CCC(Oc2ccc(-c3n[nH]c4ccc(C(=O)NC(c5ccsc5)C5CCCC5)cc34)cc2)CC1 (stereo not drawn) [Example A155, N-(cyclopentyl(thiophen-3-yl)methyl)-3-(4-((1-(2-methoxyethyl)piperidin-4-yl)oxy)phenyl)-1H-indazole-5-carboxamide] | ≥ 5.30 | ≤ 5 | ≤ 5 | ≤ 5 | ≤ 5 | ≥ 5.30 | ≤ 5 | ≤ 5 | ≥ 5.30 |
| CN1CCC(Oc2ccc(-c3n[nH]c4ccc(C(=O)NC(c5ccccc5)C5CCCC5)cc34)cc2)CC1 (stereo not drawn) [Example A159, N-(cyclopentyl(phenyl)methyl)-3-(4-((1-methylpiperidin-4-yl)oxy)phenyl)-1H-indazole-5-carboxamide] | ≥ 5.30 | ≤ 5 | ≤ 5 | ≤ 5 | ≤ 5 | ≥ 5.30 | ≤ 5 | ≤ 5 | ≥ 5.30 |

Next, values leading:

| pIC50 (human TTK) | GI50 [1] [µM] | GI50 (HT29 colon cancer cells) [µM] | GI50 [2] [µM] | GI50 [3] [µM] | pIC50 (human PLK4) | GI50 [4] [µM] | GI50 [5] [µM] | pIC50 (Aurora B) | SMILES |
| --- | --- | --- | --- | --- | --- | --- | --- | --- | --- |
| ≥ 5.30 | ≤ 5 | ≤ 5 | ≤ 5 | ≤ 5 | ≥ 5.30 | ≤ 5 | ≤ 5 | ≥ 5.30 | CC(C)(O)C1CCN(c2ccc(-c3n[nH]c4ccc(C(=O)NC(c5ccccc5)C5CC5)cc34)cc2)CC1 (stereo not drawn) [Example A112, N-(cyclopropyl(phenyl)methyl)-3-(4-(4-(2-hydroxypropan-2-yl)piperidin-1-yl)phenyl)-1H-indazole-5-carboxamide] |
| ≥ 5.30 | ≤ 5 | ≤ 5 | ≤ 5 | ≤ 5 | ≥ 5.30 | ≤ 5 | ≤ 5 | ≥ 5.30 | O=CN1CCC(Oc2ccc(-c3n[nH]c4ccc(C(=O)NC(c5ccccc5)C5CC5)cc34)cc2)CC1 (stereo not drawn) [Example A126, N-(cyclopropyl(phenyl)methyl)-3-(4-((1-formylpiperidin-4-yl)oxy)phenyl)-1H-indazole-5-carboxamide] |
| ≥ 5.30 | ≤ 5 | ≤ 5 | ≤ 5 | ≤ 5 | ≥ 5.30 | ≤ 5 | ≤ 5 | ≥ 5.30 | CN1CCOC(c2ccc(-c3n[nH]c4ccc(C(=O)NC(c5ccccc5)C5CC5)cc34)cc2)C1 (stereo not drawn) [Example A139, N-(cyclopropyl(phenyl)methyl)-3-(4-(4-methylmorpholin-2-yl)phenyl)-1H-indazole-5-carboxamide] |
| ≥ 5.30 | ≤ 5 | ≤ 5 | ≤ 5 | ≤ 5 | ≥ 5.30 | ≤ 5 | ≤ 5 | ≥ 5.30 | CN(C)C(=O)CN1CCC(Oc2ccc(-c3n[nH]c4ccc(C(=O)NC(c5ccccc5)C5CC5)cc34)cc2)CC1 (stereo not drawn) [Example A158, N-(cyclopropyl(phenyl)methyl)-3-(4-((1-(2-(dimethylamino)-2-oxoethyl)piperidin-4-yl)oxy)phenyl)-1H-indazole-5-carboxamide] |
